Data from patent publication US9499821B2, “Preventing or treating viral infection using an inhibitor of the LSD1 protein, a MAO inhibitor or an inhibitor of LSD1 and a MAO inhibitor” (The United States of America, as represented by the …, priority 2008, dated 2016).
Entries after “also recorded” stand apart in the source; their conditions may differ. Where two headings read alike, the source gives them in different places.

What was measured:
[1] = Cellular protein controls and cellular toxicity in MAOI-treated infected cells; type: cell-based
Text: (§1) For treatment with MAOIs, cells were pretreated with the indicated concentration of drug for 4-5 hrs prior to infection and maintained throughout infection. Pargyline (p-8013) and Tranylcypromine (p-8511) were obtained from Sigma (St. Louis, Mo.).

Adenovirus Type 5 = conditions: HeLa cells, 2 mM, 5 hours prior to infection, 2 or 4 hours infection
Method: Viral infection and treatment with TCP: HeLa cells (2×10^6) were treated with control DMSO (D) or 2 mM Tranylcypromine (T) for 5 hours prior to infection with various amounts of Adenovirus Type 5 (1.2×10^8, 2.3×10^8, and 4.5×10^8 NAS IU) for 2 or 4 hours. Equal amounts of infected cell lysates were resolved by SDS-PAGE and Western blotted with anti-E1A, anti-LSD1, and anti-β tubulin antibodies. HEK293 and uninfected HeLa cell lysates represented E1A positive and negative controls.
HeLa cells (2×10^6) were treated with control DMSO (D) or various concentrations of Tranylcypromine (TCP) for 5 hours prior to infection with 2.3×10^9 NAS IU of adenovirus Type 5 for 2 hours. Equal amounts of infected cell lysates were resolved by SDS-PAGE and Western blotted with anti-E1A, anti-β Tubulin, and anti-TBP antibodies.

[2] = tested on: herpes simplex virus (HSV); test: HSV infection of cells treated with MAOIs; qRT-PCR of HSV IE genes and IE proteins; type: cell-based, HSV-1 strain 17; conditions: HSV-infected cells, selected concentrations of drug; relative to DMSO treated cells
HSV ICP8 = test: ICP8 immunofluorescence of explanted latently infected trigeminal ganglia; type: cell-based, Balb/c mice; conditions: for ganglia with ICP8 (+) neurons: explant 48 hrs in the presence of drug
Method: (§2) Latently infected mice and trigeminal ganglia: Balb/c mice were infected with 5×10^5 PFU HSV-1 (strain 17) per eye after corneal scarification. Latently infected mice were sacrificed 30 days post clearance of the primary infection and trigeminal ganglia were rapidly explanted into culture in the presence or absence of TCP or control (DMSO or acyclovir). Post explant incubation as indicated, the ganglia were homogenized and briefly sonicated. The reactivated viral yield of each ganglia was determined by titering the clarified supernatant on Vero cells.
Immunofluorescence statistical analysis: Trigeminal ganglia (16 DMSO/Control, 15 acyclovir, and 15 TCP) were fixed at 48 hours post explants. Serial sections representing the entire ganglia were stained and scored by confocal microscopy.
Therefore, latently infected ganglia were explanted in the presence of DMSO (control vector), acyclovir (to prevent viral DNA replication and spread), or TCP for 48 hrs. Ganglia were fixed and sections were probed with antibodies to HSV ICP8, the viral-encoded single stranded binding protein.

HSV = conditions: 0.1 PFU HSV per cell, 24 hrs, 2 mM TCP vs DMSO
Method: (§3) Cell infections: For HSV, cells were infected with 0.1 plaque forming units (PFU) of HSV per cell for 24 hrs in the presence of 2 mM Tranylcypromine (TCP) or control DMSO. The resulting viral yields were determined by titer of infected cell lysates on Vero cell monolayers. VZV infections were performed as in Example 3.

HSV-1 (strain 17) = test: HSV reactivation: viral yield from explanted trigeminal ganglia of latently infected mice; type: cell-based, Balb/c mice
Method: as §2
Statistical analyses: Statistical comparisons were made using Wilcoxon signed rank test (paired ganglia) with a statistical significance of <0.05; Kruskal-Wallis test with post hoc Dunn's multiple comparison test (drug titration and reversal) with a statistical significance of <0.025; Mann-Whitney U test with Dunn's post hoc adjustment (non-paired ganglia time course) with a statistical significance of <0.025; or Fischer's Exact Test with a statistical significance of <0.05. Analyses were made using Prism (V5.0a) and are expressed as the mean+/−s.e.m.
Non-paired ganglia time course statistic analysis: Comparisons were made between control (DMSO) and TCP treated ganglia on day 2 and day 4 post explant. Each comparison utilized a one-sided Mann-Whitney U test followed by application of the Dunn's post hoc adjustment to the p-values. Significant differences were found between DMSO and TCP on day 2 (p=0.0043) and on day 4 (p=0.0011). Both of these differences are still significant after applying the Dunn's adjustment as both are less than the alpha level (α=0.025). The Mann-Whitney tests used an exact p-value for small sample sizes. n=6 for each sample set.
Paired ganglia statistical analysis: Each data point was the result of a single ganglia divided and treated in the presence and absence of TCP. Therefore, a Wilcoxon signed rank test was used to assess differences between each treated and untreated sample. The significant difference was p=0.0002. This test used an exact p-value for small sample sizes with an α level of 0.05. n=16 for each sample set.
TCP titration statistical analysis: To determine at what concentration TCP that would produce a significant reduction in viral load, a Kruskal-Wallis (K-W) test with Dunn's post hoc comparison was used. The K-W test was appropriate due to the comparison of five samples of data that are not normally distributed. Significant differences were found between the five groups (p=0.0007, K-W=19.39). […] No significant difference was found between 1.0 and 1.5 or 1.5 and 2.0 mM data sets. n=5 for control, 0.5, 1.0, and 2.0 mM; n=6 for […].
TCP reversal statistical analysis: Viral yields from ganglia treated without TCP for 2 days, treated with TCP for 2 days, or treated with TCP for 2 days followed by incubation in the absence of drug for 3 days were compared using the K-W test followed by Dunn's post hoc comparisons. The K-W test was appropriate due to the comparison of three samples of data that are not nominally distributed. Significant differences were found between the groups ([…], K-W=10.3).

[3] = tested on: HSV IE mRNA (ICP27, ICP4); test: Nested RT-PCR of viral IE mRNAs in explanted latently infected ganglia; type: cell-based, Balb/c mice; conditions: paired ganglia explanted 12 hrs; 100 μM acyclovir or 2 mM TCP
Method: For the detection of viral IE and cellular mRNAs post explant, 8 ganglia from HSV latently infected or mock infected Balb/c mice were explanted in the presence of DMSO, 100 μM acyclovir, or 2 mM TCP for the indicated times. cDNAs were prepared from total RNA and amplified by qPCR (cellular Sp1 and TBP controls) or nested PCR (viral IE). Primer sets for the nested RT-PCR were as follows:
cDNA samples were normalized to one another according to the level of cellular control Sp1 mRNA. To insure linearity and sensitivity of nested PCR reactions, samples were amplified in parallel with dilutions of cDNA prepared from 3T3 cells infected with HSV at 6.4×10^−5 pfu/cell for 4 hrs. PCR products were resolved in agarose gels and quantitated using Kodak Image Station 4000MM Digital Imaging System.

[4] = tested on: varicella zoster virus (VZV); test: VZV infection of cells treated with MAOIs; qRT-PCR of IE62 mRNA and IE proteins; type: cell-based; conditions: VZV-infected cells, 4 hrs, increasing amounts of drug; relative to DMSO treated cells
Method: The methods of Example 1 were followed.
as §3

[5] = tested on: viral IE promoters (histone H3, H3K9 and H3K4 methylation); test: Chromatin immunoprecipitation of viral IE promoters in MAOI-treated infected cells; type: cell-based; conditions: for nucleosomes bearing repressive marks on the viral IE promoters (histone H3 and H3K9 methylation): in the presence of drug
Method: Chromatin immunoprecipitations (ChIP) from extracts of control, HCF-1 depleted, and LSD1 depleted cells were done essentially as described (Narayanan et al., Proc. Natl. Acad. Sci. USA, 2007, 104, 10835-40). Recovered DNA was subjected to semi-quantitative PCR with dilutions of input DNA to insure linearity using PCR Supermix (Invitrogen, Carlsbad, Calif.) with the following conditions: 95° C. for 2 min followed by 20 cycles of 95° C. for 30 sec; 59° C. for 30 sec; 72° C. for 30 sec. The signal intensities of individual bands, resolved in ethidium bromide agarose gels, were calculated as a percentage of the intensity of the input extract after subtraction of the appropriate background antibody controls. Signal intensities of resolved bands were quantitated using a Kodak 4000MM Image Station.
Samples also were analyzed, in triplicate, by qPCR using ABI Sybr Green PCR Master Mix. For qPCR, samples were run on a ABI PRISM 7900HT with the following conditions: 95° C. for 10 min followed by 40 cycles of 95° C. for 15 sec; 57° C. for 15 sec; 72° C. for 30 sec. Results were analyzed using ABI SDS 2.3 software.
as §1

N[C@@H]1C[C@H]1c1ccccc1 (racemic) [TCP, Tranylcypromine]
cellular toxicity ([1]; VZV and HSV infected cells treated with inhibitor): no significant cellular toxicity | expression of the adenovirus IE protein E1A (Adenovirus Type 5): inhibits the expression | viral mRNA (HSV IE genes) and IE proteins [2]: dose dependent decrease | odds of viral reactivation, DMSO treated vs TCP treated samples (Odds Ratio) (HSV ICP8; 48 hours post explant): 60.6667 times higher | odds of viral reactivation, acyclovir treated vs TCP treated samples (Odds Ratio) (HSV ICP8; 48 hours post explant): 42.0000 times higher | ganglia with ICP8 (+) neurons (HSV ICP8): 1 of 15 | reduction of viral yields (HSV): ~1000 fold | reduction in viral load vs control (DMSO) (HSV-1 (strain 17); 0.5 mM TCP, 2 days explant, Dunn's post hoc): did not | reduction in viral load vs control (DMSO) (HSV-1 (strain 17); 1.0 mM TCP, 2 days explant, Dunn's post hoc p<0.05): showed significant differences | reduction in viral load vs control (DMSO) (HSV-1 (strain 17); 1.5 mM TCP, 2 days explant, Dunn's post hoc p<0.05): showed significant differences | viral reactivation following drug removal (TCP-R) (HSV-1 (strain 17); 2 mM TCP 2 days, then 3 days in the absence of drug): high level of viral reactivation; also recorded: HSV reactivation | reduction in viral load vs control (DMSO) (HSV-1 (strain 17); 2.0 mM TCP, 2 days explant, Dunn's post hoc p<0.05): showed significant differences | viral reactivation (viral yield), paired ganglia (HSV-1 (strain 17); each half of a ganglia explanted with or without 2 mM TCP, 2 days, p=0.0002, n=16): inhibition of viral reactivation; also recorded: decrease in viral yield | reactivation of HSV-1 (viral yield), non-paired ganglia time course (HSV-1 (strain 17); explant 2 or 4 days, 2 mM TCP vs DMSO, p=0.0043 (day 2), 0.0011 (day 4), n=6): significantly reduced; also recorded: decrease in viral yield | HSV reactivation at various (lower) levels of TCP (HSV-1 (strain 17); titration of TCP, 2 days explant): lower levels also were effective; also recorded: inhibition of HSV reactivation | ICP27 mRNA level [3]: not significantly above that of background controls | viral mRNA (IE62) and IE proteins [4]: dose dependent decrease | histone H3 and H3K9 trimethylation on viral IE promoters ([5]; in the presence of TCP): substantial increase | level of H3K4 trimethylation on viral IE promoters ([5]; in the presence of TCP): did not significantly change | nucleosomes bearing repressive marks on the viral IE promoters (histone H3 and H3K9 methylation) [5]: accumulated

C#CCN(C)Cc1ccccc1 [Pargyline]
cellular toxicity [1]: no significant cellular toxicity | viral mRNA (HSV IE genes) and IE proteins [2]: dose dependent decrease | viral mRNA (IE62) and IE proteins [4]: dose dependent decrease | nucleosomes bearing repressive marks on the viral IE promoters (histone H3 and H3K9 methylation) [5]: accumulated

Nc1nc2c(ncn2COCCO)c(=O)[nH]1 [acyclovir]
odds of viral reactivation, DMSO treated vs acyclovir treated samples (Odds Ratio) (HSV ICP8; 48 hours post explant): 1.4444 times higher | ganglia with ICP8 (+) neurons (HSV ICP8): 9 of 12 | ICP27 mRNA level [3]: readily detected
